The source of these data is patent publication US20050119243A1, “HIF-1 inhibitors and methods of use thereof” (priority 2003, published 2005).

The subject of test [1] is HIF-1α. Briefly: HIF-1α detection in HEK 293 and HT144 cells treated with DBM plus metals. As to conditions: cells exposed to DBM plus the metal. The format is cell-based, human. An excerpt: In subsequent studies, similar data has been found for HEK 293 human embryonic kidney cells and HT144 melanoma cells treated with either DBM or Zn^2+. […] This finding appears to be unique to the combination of DBM with Zn^2+ since it was not observed in cells exposed to DBM plus other metals such as Fe^3+, Co^2+, Cd^2+, and Ni^2+. Furthermore, this unexpected reversal of the independent effects of DBM and Zn^2+ was not blocked by hypoxia. These observations are counterintuitive since inhibitors of HIF P4H should impede degradation of HIF-1α. Also, these two HIF P4H inhibitors appear to work in concert under inhibitory conditions to down-regulate HIF-1α with little effect on HIF-1α mRNA levels.

Test [2] deals with HIF-1α and VEGF. As to conditions: LNCaP cells, ambient O2; cited from earlier work.
Test [3] has as its system HIF-1α. The experiment in a line: Western blot analysis of HIF-1α in HEK 293 cells with or without proteosome inhibitor MG-132, ambient oxygen. As to conditions: HEK 293, ambient oxygen; for HIF-1α detection by Western blot: 2 hours, agent without further addition; for HIF-1α detection by Western blot with MG-132 added: agent plus MG-132. The format is cell-based, human. How it is done:
Proteosomal degradation of HIF-1α was assessed in HEK 293 embryonic kidney cells treated with DBM alone, Zn^2+ alone or the combination under ambient oxygen in the presence or absence of the proteosome inhibitor MG-132 (FIG. 18). […] (FIG. 18, lane 5). […] The HIF-1α isoforms are more clearly resolved on the gel from FIG. 18 than FIG. 15. This may be due to differences in the time the gels were run.

For test [4], the system named is HIF-1α. The experiment in a line: Western blot analysis of HIF-1α in HEK 293 cells under hypoxic conditions. The format is cell-based, human. As to conditions: for HIF-1α levels by Western blot: 2 hours under 1% O2. How it is done:
(§1) HT 144 melanoma cells (FIG. 16(A)) and HEK 293 embryonic kidney cells (FIG. 16(B)) were incubated for 2 hours under 1% O2. HIF-1α […].

For test [5], the system named is HIF-1α. The experiment in a line: Western blot analysis of HIF-1α in HEK 293 cells under ambient oxygen. As to conditions: HEK 293, ambient oxygen, 1 hr. The format is cell-based, human. The procedure: The first unexpected finding was that the combination of DBM plus Zn^2+ reversed the induced stabilization of HIF-1α observed when the cells were exposed to either DBM or Zn^2+ alone under normoxic conditions (FIG. 15). HEK 293 embryonic kidney cells were incubated at ambient levels of oxygen for 1 hr with the addition of DBM alone, Zn^2+ alone or the combination. HIF-1α was not detected at baseline by Western blot (FIG. 15, lane 1).
One possible explanation for the loss of HIF-1α stabilization in cells treated with DBM plus Zn^2+ is chelation. DBM is a bidentate metal chelator that could itself bind to Zn^2+ in a 2:1 stochiometric ratio, however, the observed loss of HIF-1α stabilization occurred when either DBM or Zn^2+ was present in 50 μM excess at ratios of 4:1 (FIG. 15, lane 3) and 1:1 (FIG. 15, lane 5), respectively. […] Presumably, the increases in HIF-1α in FIG. 15 resulted from HIF P4H inhibition leading to diminished prolyl-4-hydroxylation and disruption of proteosomal degradation.

Test [6] relates to HIF-1α. The experiment in a line: Western blot analysis of HIF-1α in HT144 melanoma cells under hypoxic conditions. The format is cell-based, human. As to conditions: HT 144 cells; for HIF-1α levels by Western blot: 2 hours under 1% O2. The procedure:
as §1
(A western blot detects proteins with antibodies after separation by electrophoresis.)

Test [7] deals with HIF-1α mRNA. Briefly: Semiquantitative PCR of HIF-1α mRNA levels in HEK 293 cells under normoxia. As to conditions: HEK 293, normoxia, 2 hours, serum free media. The format is cell-based, human. The procedure:
The effects of DBM alone, Zn^2+ alone and DBM plus Zn^2+ on HIF-1αmRNA levels were assessed by semiquantitative PCR in extracts of HEK 293 kidney cells under normoxia for 2 hours in serum free media (FIG. 17). […] HIF-1αZ mRNA levels were not found to be increased (data not shown).

For test [8], the system named is HIF-1α. Briefly: Western blot analysis of HIF-1α in VHL (−/−) RCC-4 renal cell carcinoma cells, normoxic. The format is cell-based, human. As to conditions: RCC-4 VHL (−/−), 1 hour. An excerpt: As expected, HIF-1α was detected by Western blot under normoxic conditions (FIG. 19, lane 1). […] These experiments have not been performed as yet in RCC4 cells with DBM alone or in RCC4 cells transfected with pVHL.

Test [9] deals with VEGF. As to conditions: patients with metastatic kidney cancer, high doses; cited from earlier work.

Residues, ends and D or L forms follow the SMILES beside them. *: point of attachment. Cbz = O=C(OCc1ccccc1)*

VEGF, sequence (P15692 207-311 limits assumed): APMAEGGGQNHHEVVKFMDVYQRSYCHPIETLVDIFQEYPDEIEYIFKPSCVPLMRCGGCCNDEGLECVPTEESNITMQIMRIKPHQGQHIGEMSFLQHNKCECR

For `[Cd+2]` [Cd^2+], the “Loss of HIF-1α detection on simultaneous treatment with DBM plus metal” value (from here on “Loss of HIF-1α detection”) in test [1] is on record as “not observed”.

As for `[Co+2]` [Co^2+, reference compound], the “Loss of HIF-1α detection” value in test [1] is on record as “not observed”. Further, in [2], the “HIF-1α and VEGF levels” value is reported as “rapidly increase”.

On to `O=C(CC(=O)c1ccccc1)c1ccccc1` [DBM, 1,3-diphenylpropane-1,3-dione], for which the “HIF-1α detection by Western blot” value in test [3] is “readily detected”. Moreover, the “HIF-1α detection by Western blot with MG-132 added” value in test [3] is recorded as “did not stabilize these other forms of HIF-1α”. Moreover, the “HIF-1α levels by Western blot” value is reported as “significantly increased the levels of HIF-1α” in test [4], “significant increase in HIF-1α levels” in test [5] (DBM alone at 100 μM) and “significantly increased the levels of HIF-1α” in test [6]. Besides, the “HIF-1α and VEGF levels” value in test [2] was “rapidly increase”. Moreover, the “HIF-1α mRNA levels (PCR product)” value in [7] is on record as “not significantly different from baseline”.

For `[Fe+3]` [Fe^3+, reference compound], the “HIF-1α levels by Western blot, metal added to DBM” value in test [4] (2 hours under 1% O2, with DBM) is recorded as “decreased slower migrating isoforms of HIF-1α”; in test [6] (2 hours under 1% O2, with DBM) it was “did not significantly alter the effect of DBM on HIF-1α levels”. Moreover, the “Loss of HIF-1α detection” value in test [1] is recorded as “not observed”.

Take `CC(C)C[C@@H](C=O)NC(=O)[C@H](CC(C)C)NC(=O)[C@H](CC(C)C)NC(=O)OCc1ccccc1` [MG-132, reference compound] (Cbz-Leu-Leu-Leu-aldehyde): the “HIF-1α detection by Western blot” value in [3] is recorded as “accumulation of a broad range of proteins that possibly represent ubiquitinated forms of HIF-1α”; in test [8] it was “Stabilization of HIF-1α was enhanced”.

Turning to `[Ni+2]` [Ni^2+], in test [1], the “Loss of HIF-1α detection” value is listed as “not observed”.

Turning to `[Zn+2]` [Zn^2+], the “HIF-1α detection by Western blot” value in test [3] is “readily detected”. The “HIF-1α detection by Western blot with MG-132 added” value in [3] is given as “did not stabilize these other forms of HIF-1α”. The “HIF-1α levels by Western blot” value in test [4] is given as “little effect”; in test [5] (Zn^2+ alone 25 μM to 100 μM), “increased HIF-1α levels in a dose dependent manner”; in test [6], “decreased the more rapidly migrating isoforms of HIF-1α”. Also, in test [7], the “HIF-1α mRNA levels (PCR product)” value is “not significantly different from baseline”.

As for “bevacizumab: humanized monoclonal antibody specific for VEGF”, in test [9], the Clinical response entry is listed as “Clinical responses have been observed”.
